Legend:
[1] = target: T1, full-length beta-Catenin (Uniprot ID P35222) (Homo sapiens, UniProt P35222); assay: Fluorescence polarization IC50 (beta-catenin / 5FAM-TCF4 10-53 competition); type: binding; settings: fluorescence polarization; read-out: beta-Catenin FP IC50
T1 construct: 10 nM full-length beta-Catenin (Uniprot ID P35222)
T1 sequence (P35222 1-781): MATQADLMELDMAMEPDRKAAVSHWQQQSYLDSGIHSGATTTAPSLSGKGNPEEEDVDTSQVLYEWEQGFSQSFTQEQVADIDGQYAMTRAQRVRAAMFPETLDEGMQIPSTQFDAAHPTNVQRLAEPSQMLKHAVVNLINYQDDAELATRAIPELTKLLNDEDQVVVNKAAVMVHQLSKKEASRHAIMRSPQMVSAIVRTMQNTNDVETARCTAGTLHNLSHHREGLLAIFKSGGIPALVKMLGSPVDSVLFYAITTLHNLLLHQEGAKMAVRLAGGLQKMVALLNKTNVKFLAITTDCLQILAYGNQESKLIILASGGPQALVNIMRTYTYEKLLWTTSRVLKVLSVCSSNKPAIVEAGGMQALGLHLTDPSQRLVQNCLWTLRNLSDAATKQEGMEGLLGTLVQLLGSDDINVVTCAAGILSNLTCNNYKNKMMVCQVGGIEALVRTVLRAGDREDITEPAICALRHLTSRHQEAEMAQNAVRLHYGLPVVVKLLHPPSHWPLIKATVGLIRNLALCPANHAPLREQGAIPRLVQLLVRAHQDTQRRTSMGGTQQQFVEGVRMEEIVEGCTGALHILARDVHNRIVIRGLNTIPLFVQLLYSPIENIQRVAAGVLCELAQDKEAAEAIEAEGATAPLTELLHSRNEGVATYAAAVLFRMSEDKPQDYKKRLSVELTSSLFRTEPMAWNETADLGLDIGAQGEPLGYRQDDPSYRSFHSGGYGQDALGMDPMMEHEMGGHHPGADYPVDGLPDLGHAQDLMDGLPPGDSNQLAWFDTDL

[2] = target: T2, beta-catenin/TCF4 engagement (Homo sapiens, UniProt P35222); assay: Nano-BRET target engagement assay (B-cat-Halo & TCF4-Luc in HEK293 cells); type: cell-based; settings: absolute IC50; read-out: NanoBRET Abs IC50
T2 construct: expressed in transfected cells; host or cells: HEK293
T2 sequence (P35222 1-781): T1 sequence (P35222 1-781)

Compound	IC50 [1] [nM]	IC50 [2] [µM]
CC(=O)N1CCC[C@]12CC=CCCCC1(CCCC=CCCCOC(=O)N3CC[C@@](C(=O)N[C@@H](Cc4ccsc4)C(=O)N[C@@H](Cc4csc5ccccc45)C(=O)N[C@@H](CCC(N)=O)C(N)=O)(C3)NC(=O)[C@H](CC(C)C)NC(=O)[C@H](Cc3ccccc3)NC(=O)[C@H](C)NC(=O)[C@H](C)NC(=O)[C@H](CN(CC(=O)O)C(=O)CN3CCN(C)CC3)NC(=O)[C@H](CC(=O)O)NC1=O)NC(=O)[C@H](CC(C)(C)C)NC(=O)[C@H](CC(=O)O)NC2=O (stereo partly drawn) [I-2240, Ac-PL3-Asp-Npg-B5-Asp-[MePipAc]GA-Ala-Ala-Phe-Leu-PyrS2-3Thi-BztA-Gln-NH2]	5	> 20
CC(=O)N1CCC[C@]12CC=CCCCC1(CCCC=CCCCOC(=O)N3CC[C@@](C(=O)N[C@@H](Cc4ccsc4)C(=O)N[C@@H](Cc4csc5ccccc45)C(=O)N[C@@H](CCC(N)=O)C(N)=O)(C3)NC(=O)[C@H](CC(C)C)NC(=O)[C@H](Cc3ccccc3)NC(=O)[C@H](C)NC(=O)[C@H](C)NC(=O)[C@H](CN(CC(=O)O)C(=O)Cc3c(F)c(F)c(F)c(F)c3F)NC(=O)[C@H](CC(=O)O)NC1=O)NC(=O)[C@H](CC(C)(C)C)NC(=O)[C@H](CC(=O)O)NC2=O (stereo partly drawn) [I-2241, Ac-PL3-Asp-Npg-B5-Asp-[PfPhAc]GA-Ala-Ala-Phe-Leu-PyrS2-3Thi-BztA-Gln-NH2]	18	17.7
CC(=O)N1CCC[C@]12CC=CCCCC1(CCCC=CCCCOC(=O)N3CC[C@@](C(=O)N[C@@H](Cc4ccsc4)C(=O)N[C@@H](Cc4csc5ccccc45)C(=O)N[C@@H](CCC(N)=O)C(N)=O)(C3)NC(=O)[C@H](CC(C)C)NC(=O)[C@H](Cc3ccccc3)NC(=O)[C@H](C)NC(=O)[C@H](C)NC(=O)[C@H](CN(CC(=O)O)C(=O)c3c(F)c(F)c(F)c(F)c3F)NC(=O)[C@H](CC(=O)O)NC1=O)NC(=O)[C@H](CC(C)(C)C)NC(=O)[C@H](CC(=O)O)NC2=O (stereo partly drawn) [I-2242, Ac-PL3-Asp-Npg-B5-Asp-[PfBz]GA-Ala-Ala-Phe-Leu-PyrS2-3Thi-BztA-Gln-NH2]	13	21.4
CC(=O)N1CCC[C@]12CC=CCCCC1(CCCC=CCCCOC(=O)N3CC[C@@](C(=O)N[C@@H](Cc4ccsc4)C(=O)N[C@@H](Cc4csc5ccccc45)C(=O)N[C@@H](CCC(N)=O)C(N)=O)(C3)NC(=O)[C@H](CC(C)C)NC(=O)[C@H](Cc3ccccc3)NC(=O)[C@H](C)NC(=O)[C@H](C)NC(=O)[C@H](CCN(CC(=O)O)C(=O)CCCN(C)C)NC(=O)[C@H](CC(=O)O)NC1=O)NC(=O)[C@H](CC(C)(C)C)NC(=O)[C@H](CC(=O)O)NC2=O (stereo partly drawn) [I-2243, Ac-PL3-Asp-Npg-B5-Asp-[NdiMeButC]GAbu-Ala-Ala-Phe-Leu-PyrS2-3Thi-BztA-Gln-NH2]	15	25.2
CC(=O)N1CCC[C@]12CC=CCCCC1(CCCC=CCCCOC(=O)N3CC[C@@](C(=O)N[C@@H](Cc4ccsc4)C(=O)N[C@@H](Cc4csc5ccccc45)C(=O)N[C@@H](CCC(N)=O)C(N)=O)(C3)NC(=O)[C@H](CC(C)C)NC(=O)[C@H](Cc3ccccc3)NC(=O)[C@H](C)NC(=O)[C@H](C)NC(=O)[C@H](CCN(CC(=O)O)C(=O)C3CCN(C)CC3)NC(=O)[C@H](CC(=O)O)NC1=O)NC(=O)[C@H](CC(C)(C)C)NC(=O)[C@H](CC(=O)O)NC2=O (stereo partly drawn) [I-2245, Ac-PL3-Asp-Npg-B5-Asp-[4AcMePip]GAbu-Ala-Ala-Phe-Leu-PyrS2-3Thi-BztA-Gln-NH2]	26	> 20
CC(=O)N1CCC[C@]12CC=CCCCC1(CCCC=CCCCOC(=O)N3CC[C@@](C(=O)N[C@@H](Cc4ccsc4)C(=O)N[C@@H](Cc4csc5ccccc45)C(=O)N[C@@H](CCC(N)=O)C(N)=O)(C3)NC(=O)[C@H](CC(C)C)NC(=O)[C@H](Cc3ccccc3)NC(=O)[C@H](C)NC(=O)[C@H](C)NC(=O)[C@H](CCN(CC(=O)O)C(=O)Cc3ccc(C(F)(F)F)cc3)NC(=O)[C@H](CC(=O)O)NC1=O)NC(=O)[C@H](CC(C)(C)C)NC(=O)[C@H](CC(=O)O)NC2=O (stereo partly drawn) [I-2246, Ac-PL3-Asp-Npg-B5-Asp-[4CF3PhAc]GAbu-Ala-Ala-Phe-Leu-PyrS2-3Thi-BztA-Gln-NH2]	27	12.9
CC(=O)N1CCC[C@]12CC=CCCCC1(CCCC=CCCCOC(=O)N3CC[C@@](C(=O)N[C@@H](Cc4ccsc4)C(=O)N[C@@H](Cc4csc5ccccc45)C(=O)N[C@@H](CCC(N)=O)C(N)=O)(C3)NC(=O)[C@H](CC(C)C)NC(=O)[C@H](Cc3ccccc3)NC(=O)[C@H](C)NC(=O)[C@H](C)NC(=O)[C@H](CCN(CC(=O)O)C(=O)c3ccccn3)NC(=O)[C@H](CC(=O)O)NC1=O)NC(=O)[C@H](CC(C)(C)C)NC(=O)[C@H](CC(=O)O)NC2=O (stereo partly drawn) [I-2247, Ac-PL3-Asp-Npg-B5-Asp-[Pic]GAbu-Ala-Ala-Phe-Leu-PyrS2-3Thi-BztA-Gln-NH2]	8	5.9
CC(=O)N1CCC[C@]12CC=CCCCC1(CCCC=CCCCOC(=O)N3CC[C@@](C(=O)N[C@@H](Cc4ccsc4)C(=O)N[C@@H](Cc4csc5ccccc45)C(=O)N[C@@H](CCC(N)=O)C(N)=O)(C3)NC(=O)[C@H](CC(C)C)NC(=O)[C@H](Cc3ccccc3)NC(=O)[C@H](C)NC(=O)[C@H](C)NC(=O)[C@H](CCN(CC(=O)O)C(=O)c3ccc(CN4CCOCC4)cc3)NC(=O)[C@H](CC(=O)O)NC1=O)NC(=O)[C@H](CC(C)(C)C)NC(=O)[C@H](CC(=O)O)NC2=O (stereo partly drawn) [I-2248, Ac-PL3-Asp-Npg-B5-Asp-[MeMorphBz]GAbu-Ala-Ala-Phe-Leu-PyrS2-3Thi-BztA-Gln-NH2]	8	21.5

Other lines, results leading:

IC50 [1] [nM]	IC50 [2] [µM]	Compound
15	6.4	CC(=O)N1CCC[C@]12CC=CCCCC1(CCCC=CCCCOC(=O)N3CC[C@@](C(=O)N[C@@H](Cc4ccsc4)C(=O)N[C@@H](Cc4csc5ccccc45)C(=O)N[C@@H](CCC(N)=O)C(N)=O)(C3)NC(=O)[C@H](CC(C)C)NC(=O)[C@H](Cc3ccccc3)NC(=O)[C@H](C)NC(=O)[C@H](C)NC(=O)[C@H](CCN(CC(=O)O)C(=O)Cc3c(F)c(F)c(F)c(F)c3F)NC(=O)[C@H](CC(=O)O)NC1=O)NC(=O)[C@H](CC(C)(C)C)NC(=O)[C@H](CC(=O)O)NC2=O (stereo partly drawn) [I-2251, Ac-PL3-Asp-Npg-B5-Asp-[PfPhAc]GAbu-Ala-Ala-Phe-Leu-PyrS2-3Thi-BztA-Gln-NH2]
31	17.5	CC(=O)N1CCC[C@]12CC=CCCCC1(CCCC=CCCCOC(=O)N3CC[C@@](C(=O)N[C@@H](Cc4ccsc4)C(=O)N[C@@H](Cc4csc5ccccc45)C(=O)N[C@@H](CCC(N)=O)C(N)=O)(C3)NC(=O)[C@H](CC(C)C)NC(=O)[C@H](Cc3ccccc3)NC(=O)[C@H](C)NC(=O)[C@H](C)NC(=O)[C@H](CCN(CC(=O)O)C(=O)c3c(F)c(F)c(F)c(F)c3F)NC(=O)[C@H](CC(=O)O)NC1=O)NC(=O)[C@H](CC(C)(C)C)NC(=O)[C@H](CC(=O)O)NC2=O (stereo partly drawn) [I-2252, Ac-PL3-Asp-Npg-B5-Asp-[PfBz]GAbu-Ala-Ala-Phe-Leu-PyrS2-3Thi-BztA-Gln-NH2]
15	2.9	CC(=O)N1CCC[C@]12CC=CCCCC1(CCCC=CCCCOC(=O)N3CC[C@@](C(=O)N[C@@H](Cc4ccsc4)C(=O)N[C@@H](Cc4csc5ccccc45)C(=O)N[C@@H](C)C(N)=O)(C3)NC(=O)[C@H](CC(C)C)NC(=O)[C@H](Cc3ccccc3)NC(=O)[C@H](C)NC(=O)[C@H](C)NC(=O)[C@H](Cc3cccc(C(=O)O)c3)NC(=O)[C@H](CC(=O)O)NC1=O)NC(=O)[C@H](CC(C)(C)C)NC(=O)[C@H](CC(=O)O)NC2=O (stereo partly drawn) [I-2257, Ac-PL3-Asp-Npg-B5-Asp-3COOHF-Ala-Ala-Phe-Leu-PyrS2-3Thi-BztA-Ala-NH2]
30	4.3	CC(=O)N1CCC[C@]12CC=CCCCC1(CCCC=CCCCOC(=O)N3CC[C@@](C(=O)N[C@@H](Cc4ccsc4)C(=O)N[C@@H](Cc4csc5ccccc45)C(=O)N[C@@H](C)C(N)=O)(C3)NC(=O)[C@H](Cc3ccccc3)NC(=O)[C@H](Cc3ccccc3)NC(=O)[C@H](C)NC(=O)[C@H](C)NC(=O)[C@H](Cc3cccc(C(=O)O)c3)NC(=O)[C@H](CC(=O)O)NC1=O)NC(=O)[C@H](CC(C)(C)C)NC(=O)[C@H](CC(=O)O)NC2=O (stereo partly drawn) [I-2259, Ac-PL3-Asp-Npg-B5-Asp-3COOHF-Ala-Ala-Phe-Phe-PyrS2-3Thi-BztA-Ala-NH2]
21	3.1	CC(=O)N1CCC[C@]12CC=CCCCC1(CCCC=CCCCOC(=O)N3CC[C@@](C(=O)N[C@@H](Cc4ccsc4)C(=O)N[C@@H](Cc4csc5ccccc45)C(=O)N[C@@H](C)C(N)=O)(C3)NC(=O)[C@H](CC(C)C)NC(=O)[C@H](Cc3cccc(F)c3)NC(=O)[C@H](C)NC(=O)[C@H](C)NC(=O)[C@H](Cc3cccc(C(=O)O)c3)NC(=O)[C@H](CC(=O)O)NC1=O)NC(=O)[C@H](CC(C)(C)C)NC(=O)[C@H](CC(=O)O)NC2=O (stereo partly drawn) [I-2260, Ac-PL3-Asp-Npg-B5-Asp-3COOHF-Ala-Ala-3FF-Leu-PyrS2-3Thi-BztA-Ala-NH2]

— US20240116985A1, “STAPLED PEPTIDES AND METHODS THEREOF” (priority 2020, published 2024)
